Results as given in US11337976B2 (Plexxikon Inc., priority 2011, dated 2022).

System: A375 melanoma cells (B-Raf V600E mutation)
Assay: A375 (A375_P-ERK) cell activity / cell growth inhibition assay
Type: cell-based, human
Conditions: Homo sapiens, A-375; A375 cells (text: A375_P-ERK)

| SMILES | IC50 |
| --- | --- |
| CCN(C)S(=O)(=O)Nc1ccc(F)c(C(=O)c2c[nH]c3ncc(C#N)cc23)c1F [P-0017, 5-cyano-3-[3-[[ethyl(methyl)sulfamoyl]amino]-2,6-difluoro-benzoyl]-1H-pyrrolo[2,3-b]pyridine] | < 1 µM |
| CCC(C)S(=O)(=O)Nc1cccc(C(=O)c2c[nH]c3ncc(-c4cnc(N5CCCC5)nc4)cc23)c1F (centres unmarked) [P-0225, N-[2-fluoro-3-[5-(2-pyrrolidin-1-ylpyrimidin-5-yl)-1H-pyrrolo[2,3-b]pyridine-3-carbonyl]phenyl]butane-2-sulfonamide] | < 1 µM |
| CCN(C)S(=O)(=O)Nc1ccc(F)c(C(=O)c2c[nH]c3ncc(-c4csc(C(C)(C)O)n4)cc23)c1F [P-0316, 4-[3-[3-[[ethyl(methyl)sulfamoyl]amino]-2,6-difluoro-benzoyl]-1H-pyrrolo[2,3-b]pyridin-5-yl]-2-(1-hydroxy-1-methyl-ethyl)thiazole] | < 1 µM |
| CCCN(C)S(=O)(=O)Nc1ccc(F)c(C(=O)c2c[nH]c3ncc(-c4cnc(OC)nc4)cc23)c1F [P-0116, 3-[2,6-difluoro-3-[[methyl(propyl)sulfamoyl]amino]benzoyl]-5-(2-methoxypyrimidin-5-yl)-1H-pyrrolo[2,3-b]pyridine] | < 1 µM |
| CCN(C)S(=O)(=O)Nc1ccc(F)c(C(=O)c2c[nH]c3ncc(-c4cncc(C(C)(C)O)c4)cc23)c1F [P-0306, 3-[3-[[ethyl(methyl)sulfamoyl]amino]-2,6-difluoro-benzoyl]-5-[5-(1-hydroxy-1-methyl-ethyl)-3-pyridyl]-1H-pyrrolo[2,3-b]pyridine] | > 1 µM |
| O=C(c1cccc(NS(=O)(=O)N2CCCC2)c1F)c1c[nH]c2ncc(-c3ccccc3)cc12 [P-0063, N-[2-fluoro-3-(5-phenyl-1H-pyrrolo[2,3-b]pyridine-3-carbonyl)phenyl]pyrrolidine-1-sulfonamide] | < 1 µM |
| CCN(C)S(=O)(=O)Nc1ccc(F)c(C(=O)c2c[nH]c3ncc(-c4cnc(N5CCOCC5)nc4)cc23)c1F [P-0258, 4-[5-[3-[3-[[ethyl(methyl)sulfamoyl]amino]-2,6-difluoro-benzoyl]-1H-pyrrolo[2,3-b]pyridin-5-yl]pyrimidin-2-yl]morpholine] | < 1 µM |
| O=C(c1c(F)ccc(NS(=O)(=O)N2CCCC2)c1F)c1c[nH]c2ncc(F)c(NCC3CC3)c12 [P-0016, N-[3-[4-(cyclopropylmethylamino)-5-fluoro-1H-pyrrolo[2,3-b]pyridine-3-carbonyl]-2,4-difluoro-phenyl]pyrrolidine-1-sulfonamide] | < 1 µM |
| Nc1nccc(-c2cnc3[nH]cc(C(=O)c4c(F)ccc(NS(=O)(=O)N5CCCC5)c4F)c3c2)n1 [P-0280, N-[3-[5-(2-aminopyrimidin-4-yl)-1H-pyrrolo[2,3-b]pyridine-3-carbonyl]-2,4-difluoro-phenyl]pyrrolidine-1-sulfonamide] | < 1 µM |
| CC(C)CN(C)S(=O)(=O)Nc1cccc(C(=O)c2c[nH]c3ncc(I)cc23)c1F [P-0070, 3-[2-fluoro-3-[[isobutyl(methyl)sulfamoyl]amino]benzoyl]-5-iodo-1H-pyrrolo[2,3-b]pyridine] | < 1 µM |
| Cc1ncc(-c2cnc3[nH]cc(C(=O)c4cccc(NS(=O)(=O)N(C)CC5CC5)c4F)c3c2)cn1 [P-0112, 3-[3-[[cyclopropylmethyl(methyl)sulfamoyl]amino]-2-fluoro-benzoyl]-5-(2-methylpyrimidin-5-yl)-1H-pyrrolo[2,3-b]pyridine] | < 1 µM |
| CCN(C)S(=O)(=O)Nc1cccc(C(=O)c2c[nH]c3ncc(-c4ccc(C(C)(C)O)cc4)cc23)c1F [P-0104, 3-[3-[[ethyl(methyl)sulfamoyl]amino]-2-fluoro-benzoyl]-5-[4-(1-hydroxy-1-methyl-ethyl)phenyl]-1H-pyrrolo[2,3-b]pyridine] | < 1 µM |
| CCN(C)S(=O)(=O)Nc1ccc(F)c(C(=O)c2c[nH]c3ncc(-c4cncs4)cc23)c1F [P-0315, 5-[3-[3-[[ethyl(methyl)sulfamoyl]amino]-2,6-difluoro-benzoyl]-1H-pyrrolo[2,3-b]pyridin-5-yl]thiazole] | < 1 µM |
| CCN(C)S(=O)(=O)Nc1cccc(C(=O)c2c[nH]c3ncc(-c4cnc(OC)nc4)cc23)c1F [P-0020] | < 1 µM |
